Measurements as given in US6737383B1, “Herbicidal oxadiazolidines” (priority 1999, dated 2004).

How the values were obtained:
bedstraw = test: Test B pre/postemergence bedstraw; type: in vivo, Galium aparine
Outline: (§1)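 Test chemicals in a non-phytotoxic solvent mixture with surfactant were sprayed preemergence onto planted seeds and postemergence onto plants 2 to 18 cm tall (1- to 4-leaf stage). After twelve to sixteen days in a greenhouse, injury was visually rated against untreated controls from 0 (no effect) to 10 (complete control).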

blackgrass = test: Test B pre/postemergence blackgrass; type: in vivo, Alopecurus myosuroides
Outline: as §1

surinam grass = test: Test B pre/postemergence surinam grass; type: in vivo, Brachiaria decumbens
Outline: as §1

cocklebur = test: Test B pre/postemergence cocklebur; type: in vivo, Xanthium strumarium
Outline: as §1

corn = test: Test B pre/postemergence corn; type: in vivo, Zea mays
Outline: as §1

crabgrass = test: Test B pre/postemergence crabgrass; type: in vivo, Digitaria sanguinalis
Outline: as §1

giant foxtail = test: Test B pre/postemergence giant foxtail; type: in vivo, Setaria faberii
Outline: as §1

rape = test: Test B pre/postemergence rape; type: in vivo, Brassica napus
Outline: as §1

soybean = test: Test B pre/postemergence soybean; type: in vivo, Glycine max
Outline: as §1

sugar beet = test: Test B pre/postemergence sugar beet; type: in vivo, Beta vulgaris
Outline: as §1

velvetleaf = test: Test B pre/postemergence velvetleaf; type: in vivo, Abutilon theophrasti
Outline: as §1

wheat = test: Test B pre/postemergence wheat; type: in vivo, Triticum aestivum
Outline: as §1

purple nutsedge = test: Test B pre/postemergence purple nutsedge; type: in vivo, Cyperus rotundus
Outline: as §1

rice = test: Test B flood test rice; type: in vivo, Oryza sativa
Outline: (§2)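 Plants were grown to the 2-leaf stage before treatment with test chemical, then held in a greenhouse for twelve to sixteen days. Injury was visually rated against untreated controls on a 0–10 scale, where 0 is no effect and 10 is complete control.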

smallflower flatsedge = test: Test B flood test smallflower flatsedge; type: in vivo, Cyperus difformis
Outline: as §2

duck salad = test: Test B flood test duck salad; type: in vivo, Heteranthera limosa
Outline: as §2

bamyardgrass = test: Test B flood test barnyardgrass; type: in vivo, Echinochloa crus-galli
Outline: as §2

[1] = Postemergence, Rate 62 g/ha, scale 0 to 10, 0 is no effect, 10 is complete control
[2] = Preemergence, Rate 62 g/ha, scale 0 to 10 (0 no effect, 10 complete control)
[3] = Preemergence, Rate 125 g/ha, scale 0 to 10 (0 no effect, 10 complete control)
[4] = Preemergence, Rate 250 g/ha, scale of 0 to 10 where 0 is no effect and 10 is complete control
[5] = Preemergence, Rate 500 g/ha, scale 0 (no effect) to 10 (complete control)
[6] = Postemergence, Rate 125 g/ha, scale of 0 to 10 where 0 is no effect and 10 is complete control
[7] = Postemergence, Rate 250 g/ha, scale 0 to 10, 0 no effect, 10 complete control
[8] = Rate 500 g/ha, Postemergence, scale 0 to 10, 0 no effect, 10 complete control
[9] = Rate 250 g/ha, Postemergence, scale 0 to 10, 0 is no effect, 10 is complete control
[10] = Postemergence (flood test species), Rate 125 g/ha, scale of 0 to 10 where 0 is no effect and 10 is complete control
[11] = Rate 250 g/ha, Postemergence (flood test), scale 0 to 10, 0 is no effect, 10 is complete control
[12] = Rate 500 g/ha, listed under Postemergence (flood test species), scale 0 to 10, 0 no effect, 10 complete control
[13] = flood test, listed under Postemergence, Rate 250 g/ha, scale 0 to 10, 0 no effect, 10 complete control

With `CC(C)N(C(=O)n1oc(=O)n(-c2cccc3c2CCCC3)c1=O)c1ccc(F)cc1` [Compound 90] the “Bedstraw plant response rating” value (bedstraw; [1]) was 0, the “Bedstraw plant response rating” value (bedstraw; [2]) was 0 and the “Plant response rating, Bedstraw” value (bedstraw; [3]) was 0. For the same molecule, the “Plant response rating, Bedstraw” value (bedstraw; [4]) was 0, the “Bedstraw plant response rating” value (bedstraw; [5]) was 0 and the “Blackgrass plant response rating” value (blackgrass; [1]) was 0. The “Blackgrass plant response rating” value (blackgrass; [6]) was 0, the “Blackgrass plant response rating” value (blackgrass; [7]) was 0 and the “Blackgrass plant response rating” value (blackgrass; [2]) was 0. For the same molecule, the “Plant response rating, Blackgrass” value (blackgrass; [3]) was 0, the “Plant response rating, Blackgrass” value (blackgrass; [4]) was 3 and the “Blackgrass plant response rating” value (blackgrass; [5]) was 6. For the same molecule, the “Blackgrass plant response rating” value (blackgrass; [8]) was 0, the “B. signalgrass plant response rating” value (surinam grass; [1]) was 0 and the “B. signalgrass plant response rating” value (surinam grass; [7]) was 0. The “B. signalgrass plant response rating” value (surinam grass; [2]) was 0, the “Plant response rating, B. signalgrass” value (surinam grass; [3]) was 0 and the “B. signalgrass plant response rating” value (surinam grass; [5]) was 3. For the same molecule, the “B. signalgrass plant response rating” value (surinam grass; Rate 125 g/ha, Postemergence, scale 0 to 10, 0 no effect, 10 complete control) was 0, the “B. signalgrass plant response rating” value (surinam grass; Rate 500 g/ha, Postemergence, scale of 0 to 10 where 0 is no effect and 10 is complete control) was 0 and the “Cocklebur plant response rating” value (cocklebur; [1]) was 1. The “Cocklebur plant response rating” value (cocklebur; [6]) was 3, the “Cocklebur plant response rating” value (cocklebur; [7]) was 3 and the “Cocklebur plant response rating” value (cocklebur; [2]) was 0. For the same molecule, the “Plant response rating, Cocklebur” value (cocklebur; [3]) was 0, the “Plant response rating, Cocklebur” value (cocklebur; [4]) was 0 and the “Cocklebur plant response rating” value (cocklebur; [5]) was 0. The “Cocklebur plant response rating” value (cocklebur; [8]) was 5, the “Corn plant response rating” value (corn; [1]) was 0 and the “Corn plant response rating” value (corn; [6]) was 0. For the same molecule, the “Corn plant response rating” value (corn; [7]) was 0, the “Corn plant response rating” value (corn; [2]) was 0 and the “Plant response rating, Corn” value (corn; [3]) was 0. The “Plant response rating, Corn” value (corn; [4]) was 0, the “Corn plant response rating” value (corn; [5]) was 0 and the “Corn plant response rating” value (corn; [8]) was 0. The “Crabgrass plant response rating” value (crabgrass; [1]) was 1, the “Crabgrass plant response rating” value (crabgrass; [6]) was 2 and the “Crabgrass plant response rating” value (crabgrass; [7]) was 2. The “Crabgrass plant response rating” value (crabgrass; [2]) was 0, the “Plant response rating, Crabgrass” value (crabgrass; [3]) was 2 and the “Plant response rating, Crabgrass” value (crabgrass; [4]) was 8. The “Crabgrass plant response rating” value (crabgrass; [5]) was 8, the “Crabgrass plant response rating” value (crabgrass; [8]) was 4 and the “Giant foxtail plant response rating” value (giant foxtail; [1]) was 0. The “Giant foxtail plant response rating” value (giant foxtail; [6]) was 0, the “Giant foxtail plant response rating” value (giant foxtail; [7]) was 1 and the “Giant foxtail plant response rating” value (giant foxtail; [2]) was 4. The “Plant response rating, Giant foxtail” value (giant foxtail; [3]) was 8, the “Plant response rating, Giant foxtail” value (giant foxtail; [4]) was 9 and the “Giant foxtail plant response rating” value (giant foxtail; [5]) was 10. The “Giant foxtail plant response rating” value (giant foxtail; [8]) was 1, the “Rape plant response rating” value (rape; [1]) was 0 and the “Rape plant response rating” value (rape; [6]) was 0. The “Rape plant response rating” value (rape; [7]) was 0, the “Rape plant response rating” value (rape; [2]) was 0 and the “Plant response rating, Rape” value (rape; [3]) was 0. The “Plant response rating, Rape” value (rape; [4]) was 0, the “Rape plant response rating” value (rape; [5]) was 0 and the “Rape plant response rating” value (rape; [8]) was 0. The “Soybean plant response rating” value (soybean; [1]) was 4, the “Soybean plant response rating” value (soybean; [6]) was 4 and the “Soybean plant response rating” value (soybean; [2]) was 0. The “Plant response rating, Soybean” value (soybean; [3]) was 0, the “Plant response rating, Soybean” value (soybean; [4]) was 0 and the “Soybean plant response rating” value (soybean; [5]) was 0. For the same molecule, the “Plant response rating, Soybean” value (soybean; [9]) was 4, the “Soybean plant response rating” value (soybean; [8]) was 4 and the “Sugarbeets plant response rating” value (sugar beet; [1]) was 0. For the same molecule, the “Sugarbeets plant response rating” value (sugar beet; [6]) was 0, the “Sugarbeets plant response rating” value (sugar beet; [2]) was 0 and the “Plant response rating, Sugarbeets” value (sugar beet; [3]) was 0. The “Plant response rating, Sugarbeets” value (sugar beet; [4]) was 0, the “Sugarbeets plant response rating” value (sugar beet; [5]) was 0 and the “Plant response rating, Sugarbeets” value (sugar beet; [9]) was 3. For the same molecule, the “Sugarbeets plant response rating” value (sugar beet; [8]) was 3, the “Velvetleaf plant response rating” value (velvetleaf; [1]) was 0 and the “Velvetleaf plant response rating” value (velvetleaf; [6]) was 0. For the same molecule, the “Velvetleaf plant response rating” value (velvetleaf; [2]) was 0, the “Plant response rating, Velvetleaf” value (velvetleaf; [3]) was 0 and the “Plant response rating, Velvetleaf” value (velvetleaf; [4]) was 0. For the same molecule, the “Velvetleaf plant response rating” value (velvetleaf; [5]) was 0, the “Plant response rating, Velvetleaf” value (velvetleaf; [9]) was 0 and the “Wheat plant response rating” value (wheat; [1]) was 0. For the same molecule, the “Wheat plant response rating” value (wheat; [6]) was 0, the “Wheat plant response rating” value (wheat; [2]) was 0 and the “Plant response rating, Wheat” value (wheat; [3]) was 0. The “Plant response rating, Wheat” value (wheat; [4]) was 0, the “Wheat plant response rating” value (wheat; [5]) was 0 and the “Plant response rating, Wheat” value (wheat; [9]) was 0. For the same molecule, the “Wheat plant response rating” value (wheat; [8]) was 0, the “Nutsedge plant response rating” value (purple nutsedge; [1]) was 0 and the “Nutsedge plant response rating” value (purple nutsedge; [6]) was 0. The “Nutsedge plant response rating” value (purple nutsedge; [7]) was 0, the “Nutsedge plant response rating” value (purple nutsedge; [2]) was 0 and the “Plant response rating, Nutsedge” value (purple nutsedge; [3]) was 0. For the same molecule, the “Plant response rating, Nutsedge” value (purple nutsedge; [4]) was 0, the “Nutsedge plant response rating” value (purple nutsedge; [5]) was 0 and the “Nutsedge plant response rating” value (purple nutsedge; [8]) was 0. For the same molecule, the “Rice plant response rating” value (rice; [10]) was 0, the “Rice plant response rating” value (rice; [1]) was 0 and the “Plant response rating, Rice” value (rice; [11]) was 0. The “Rice plant response rating” value (rice; [12]) was 0, the “S. Flatsedge plant response rating” value (smallflower flatsedge; [10]) was 0 and the “S. Flatsedge plant response rating” value (smallflower flatsedge; [1]) was 0. For the same molecule, the “Plant response rating, S. Flatsedge” value (smallflower flatsedge; [11]) was 0, the “S. Flatsedge plant response rating” value (smallflower flatsedge; [12]) was 0 and the “Ducksalad plant response rating” value (duck salad; [10]) was 0. For the same molecule, the “Ducksalad plant response rating” value (duck salad; [1]) was 0, the “Ducksalad plant response rating” value (duck salad; [12]) was 0 and the “Ducksalad plant response rating” value (duck salad; [13]) was 0. For the same molecule, the “Barnyardgrass plant response rating” value (bamyardgrass; [1]) was 0, the “Barnyardgrass plant response rating” value (bamyardgrass; Rate 125 g/ha, Postemergence section (flood test species), scale 0 to 10, 0 no effect, 10 complete control) was 0 and the “Barnyardgrass plant response rating” value (bamyardgrass; [12]) was 0. The “Barnyardgrass plant response rating” value (bamyardgrass; [13]) was 0.
